Data: PubChem BioAssay AID1508603 (National Center for Advancing Translational Sciences (NCATS), 2020)

Test system: human liver cytosol stability, half-life
Test: NCATS Human Liver Cytosol Stability Profiling
Details: higher = more stable
Description: Assay submitter (PI): Pranav Shah Ph.D.
NIH Center for Advancing Translational Sciences
Over the last few decades, chemists have become skilled at designing compounds that avoid cytochrome P (CYP) 450 mediated metabolism. Typical screening assays are performed in liver microsomal fractions and it is possible to overlook the contribution of cytosolic enzymes until much later in the drug discovery process. Few data exist on cytosolic enzyme-mediated metabolism and no reliable tools are available to chemists to help design away from such liabilities. In this study, we screened 1450 compounds for liver cytosol-mediated metabolic stability and extracted transformation rules that might help medicinal chemists in optimizing compounds with these liabilities. […] Matched molecular pairs analysis was performed in conjunction with qualitative-structure activity relationship modeling to identify chemical structure transformations affecting cytosolic stability. The transformation rules were prospectively validated on the test set. In addition, selected rules were validated on a diverse chemical library and the resulting pairs were experimentally tested to confirm whether the identified transformations could be generalized. The validation results, comprising nearly 250 library compounds and corresponding half-life data, are made publicly available. The datasets were also used to generate in silico classification models, based on different molecular descriptors and machine learning methods, to predict cytosol-mediated liabilities. To the best of our knowledge, this is the first systematic in silico effort to address cytosolic enzyme-mediated liabilities (Shah 2020).
Shah, P., Siramshetty, V.B., Zakharov, A.V. et al. Predicting liver cytosol stability of small molecules. J Cheminform 12, 21 (2020). https://doi.org/10.1186/s13321-020-00426-7
Compounds are classified as unstable (t 1/2 < 30 min) or stable (t 1/2 > 30 min).
1. Shah, P. et al. An Automated High-Throughput Metabolic Stability Assay Using an Integrated High-Resolution Accurate Mass Method and Automated Data Analysis Software. Drug Metab Dispos 44, 1653-1661 (2016). PMID 27417180

Row | half-life | Structure (SMILES)
1 | 1.79 h | CC(C)CN1C(=O)c2cccn2CC1C(=O)N1CCN(C)CC1 (stereo not drawn)
2 | 0.667 h | O=C(c1ccsc1)N1CCC(Oc2ccccc2)C1 (stereo not drawn)
3 | > 2 h | CCN1CCN(C(=O)c2nc3sccn3c2-c2cccc(C#N)c2)CC1
4 | > 2 h | CCOCCOC1CCN(C(=O)Nc2cccc(F)c2)CC1
5 | > 2 h | CN1CCC(OC2CCN(C(=O)c3cccc(F)c3)CC2)CC1
6 | 0.16 h | Fc1cccc(-c2cnc(Nc3cncnc3)c3c2CCO3)c1
7 | 1.59 h | N#Cc1cccc(-c2c(C(=O)NC3CC3)nc3sccn23)c1
8 | 1.9 h | COc1cccc(-c2c(C(=O)N3CCCCC3)nc3sccn23)c1
9 | 1.34 h | COc1cncc(Nc2ncc(-c3cccc(F)c3)c3c2OCC3)c1
10 | > 2 h | COc1cccc(-c2c(C(=O)N3CCOCC3)nc3sccn23)c1
11 | > 2 h | CCN1CCN(C(=O)c2nc3sccn3c2-c2cccc(OC)c2)CC1
12 | 1.55 h | N#Cc1ccc(CN2CCC(N3CCNC3=O)CC2)cc1
13 | > 2 h | COc1ccccc1-c1[nH]nc2ncc(-c3cccc(F)c3)nc12
14 | > 2 h | O=C1COCCN1c1cc(-c2cccc(F)c2)cn2cncc12
15 | 0.993 h | COc1cccc(-c2cn3c(n2)N(C(=O)c2ccco2)CCC3)c1
16 | 0.693 h | N#Cc1cccc(CN2CC(COc3ccccc3)C3(C2)CN(c2ccccc2)C3)c1 (stereo not drawn)
17 | > 2 h | CN1c2cc(C(=O)Nc3ccc(S(N)(=O)=O)cc3)ccc2C(=O)N2CCCCC21 (stereo not drawn)
18 | 0.73 h | Cc1cc(OC2CN(Cc3ccc(C#N)cc3)C2)ccc1F
19 | 0.852 h | N#Cc1cccc(CN2CCOC[C@H](O)C2)c1
20 | > 2 h | N#Cc1cccc(CN2CC[C@H](c3nnc(-c4ccco4)o3)C2)c1
21 | > 2 h | O=C(c1cccnc1)N1CCC(Oc2cccc(F)c2)C1 (stereo not drawn)
22 | 0.47 h | COc1cccc(CN2CCOC[C@H](O)C2)c1

Row | half-life | Structure (SMILES)
23 | 0.988 h | Fc1cccc(-c2cnc([C@@H]3COCCN3Cc3cnc[nH]3)[nH]2)c1
24 | > 2 h | COc1ccc(CN2CC(Oc3ccc(OC)cc3)C2)cc1
25 | 0.593 h | Cc1cc2cc(-c3c(C)noc3C)nc(Nc3ccccc3)c2o1
26 | > 2 h | COc1ccc(C(=O)N2C[C@@H](CO)[C@H](N(C)C)C2)cc1
27 | 1.06 h | Cc1ccc(-c2noc([C@@H]3Cc4nc[nH]c4CN3Cc3cccc(C#N)c3)n2)cc1
28 | 1.38 h | O=C(c1ccsc1)N1CCC(Oc2cccc(F)c2)C1 (stereo not drawn)
29 | > 2 h | O=C(N1CCN(S(=O)(=O)c2cccc(F)c2)CC1)N1CC2CC(C1)[C@H]1CCCC(=O)N1C2 (stereo partly drawn)
30 | 1.72 h | N#Cc1cccc(-c2c(C(=O)N3CCCCC3)nc3sccn23)c1
31 | > 2 h | COc1ccc(CN2CC[C@H](c3nnc(C)o3)C2)cc1
32 | > 2 h | N#Cc1ccc(C(=O)N2CCOC[C@H](Oc3cnccn3)C2)cc1
33 | 0.847 h | O=C(NCCCn1ccnc1)c1ccc(-c2ncc3cnc(-c4cccc(F)c4)cn23)cc1
34 | > 2 h | CN1CCC(OC2CCN(C(=O)c3ccccc3)CC2)CC1
35 | 1.37 h | COc1ccc(CN2CC(N3CCc4ccccc43)C2)cc1
36 | > 2 h | N#Cc1cccc(-c2c(C(=O)N3CCOCC3)nc3sccn23)c1
37 | > 2 h | CC(=O)N1CCC(Cc2ccc(C(=O)O)cc2)CC1
38 | 0.943 h | CC(C)(C)c1coc([C@@H]2COCCN2Cc2cccc(C#N)c2)n1
39 | 0.248 h | O=C(NCCc1cnc[nH]1)c1ccc(-c2ncc3cnc(-c4cccc(F)c4)cn23)cc1
40 | > 2 h | Fc1cccc(-c2cnc(Nc3cccnc3)c3c2CCO3)c1
41 | > 2 h | CCN1CCN(C(=O)c2cc(-c3ccccc3OC)c3nncn3n2)CC1
42 | > 2 h | CN1CCN(C(=O)c2cc(-c3cccnc3)nc3c2cnn3C)CC1
43 | > 2 h | COCCOC1CCN(C(=O)Nc2cccc(F)c2)CC1
